# Results taken from patent publication US20150342847A1, “NOVEL DERIVATIVES OF SINAPINIC ACID AND THE COSMETIC OR PHARMACEUTICAL USES THEREOF” (BASF Beauty Care Solutions France SAS, priority 2012, published 2015).
# Experiments:
# Assay type in all cases: cell-based
# keratinocytes = experiment: Cytotoxicity, MTT cell viability on keratinocytes; conditions: for Percentage cell viability, Mean: MTT
# Procedure: (§1) Study of cell viability following application of the hydroxytyrosol dihydrosinapate of the invention of formula (IIa) to keratinocytes or melanocytes.
# (§2) The cells (keratinocytes or melanocytes) were cultured in a 96-well plate at 37° C. under 5% CO2 in an appropriate medium until confluence. The medium was withdrawn and then an amount of 200 μL of a 0.5 mg/mL MTT solution was added. The plates were then incubated at 37° C. for 3 hours, after which the MTT solution was withdrawn from each well and replaced with DMSO. The plates were agitated for 15 minutes, and the optical density was measured at 550 nm.
# (§3) The negative cytotoxicity control is PBS. The positive cytotoxicity control is 0.25% SDS. 0.1% DMSO was used as control.
# human tyrosinase = biological target: T1, human tyrosinase (Homo sapiens, UniProt P14679); experiment: Anti-human tyrosinase activity in normal human melanocytes (MBTH/L-Dopa, OD490)
# T1 construct: endogenous in cells; host or cells: normal human melanocytes obtained from abdominal plasty
# T1 sequence (P14679 19-529): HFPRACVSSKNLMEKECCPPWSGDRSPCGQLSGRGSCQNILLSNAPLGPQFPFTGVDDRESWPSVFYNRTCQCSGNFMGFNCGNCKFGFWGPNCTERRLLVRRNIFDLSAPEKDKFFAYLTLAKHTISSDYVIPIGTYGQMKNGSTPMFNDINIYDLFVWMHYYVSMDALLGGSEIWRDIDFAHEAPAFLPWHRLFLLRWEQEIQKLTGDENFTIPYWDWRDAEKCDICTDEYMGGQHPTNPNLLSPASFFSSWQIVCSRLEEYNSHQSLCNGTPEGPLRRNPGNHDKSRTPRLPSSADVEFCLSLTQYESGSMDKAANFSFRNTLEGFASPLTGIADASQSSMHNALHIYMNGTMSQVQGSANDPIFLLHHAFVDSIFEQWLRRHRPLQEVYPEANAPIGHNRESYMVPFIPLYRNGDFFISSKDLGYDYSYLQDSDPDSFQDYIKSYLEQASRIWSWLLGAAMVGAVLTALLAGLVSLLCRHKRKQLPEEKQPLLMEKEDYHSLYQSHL
# Procedure: Study of the inhibition of tyrosinase by the hydroxytyrosol dihydrosinapate of the invention of formula (IIa), in comparison with the prior-art ferulic acid derivative, by quantitative analysis of the human tyrosinase activity of melanocytes cultured as a monolayer following application of the compound under test. Normal human melanocytes (obtained from abdominal plasty) are seeded in a 24-well plate at 80000 cells per well. They are cultured until confluence, and the compounds under test are applied in the culture media for 24 hours. After 24 hours, the media are removed and the melanocytes are detached by mechanical action. Extraction is carried out by thermal shock and then the supernatants are recovered and incubated with MBTH (methyl benzothiazolinone-hydrazone) (Sigma) and L-Dopa (Sigma). The optical density (OD) at 490 nm (OD490) is measured after 30 minutes of incubation, and the inhibition of tyrosinase is calculated according to the following formula: % inhibition=100−[100×(OD490 sample/level of proteins in sample)/(OD490 negative control/level of proteins in negative control)] The OD490 is therefore related to the level of protein, which is the measurement in each culture well. […] The results are presented as % inhibition of activity of tyrosinase, in Table 2.
# [1] = tested on: keratinocytes from the A431 line; experiment: Antiinflammatory activity: release of E2 prostaglandins by UVB-irradiated keratinocytes (ELISA); conditions: A431 keratinocytes, 30 μM, UV B 30 mJ/cm2, untreated irradiated control = 100%
# Procedure: Study of the antiinflammatory activity of the hydroxytyrosol dihydrosinapate of the invention of formula (IIa), by measurement of the inhibition of release of E2 prostaglandins by keratinocytes under the effect of UVB.
# The keratinocytes from the A431 line are cultured in an appropriate medium at 37° C. for 72 hours under 5% CO2. The culture medium is then withdrawn and replaced with the medium containing the products under test, and also the positive and negative controls. The cells are subsequently irradiated with UV B at 30 mJ/cm2. The cells are incubated for an extra 24 hours at 37° C. under 5% CO2. The cell supernatants are subsequently recovered, and the E2 prostaglandins (PGE2) released are quantified by an ELISA assay.
# An amount of 100 μL of each sample, control or PGE2 standard is transferred to the wells of a 96-well plate, which are coated with antibodies directed against rat immunoglobulin G (IgG). Then an amount of 25 μL of PGE2-peroxidase conjugate is added to each well, followed by an amount of 25 μL of anti-PGE2 monoclonal antibody. The plate is incubated at 4° C. overnight. The wells are then rinsed and an amount of 100 μL of peroxidase substrate is added. After 15 minutes of incubation at ambient temperature, the optical density is read off at 450 nm. The amount of prostaglandin E2 released after irradiation is deduced from a commercial PGE2 standard range from 0 to 400 pg/mL of PGE2.
# The negative control, represented by the cells which were not treated with samples and which underwent irradiation by UV B, gave rise to 100% release of PGE2. The positive experimental control is aspirin, which at 0.03% gave rise to 5%+/−2% release of PGE2.
# [2] = tested on: melanocytes of murine line B16; experiment: Inhibition of melanin production in B16 melanocytes stimulated with an α-MSH derivative; conditions: Mus musculus, B16 cells, 72 hours, read-out: % inhibition of melanin +/− standard deviation
# Procedure: Determination of the percentage inhibition of melanin production by the hydroxytyrosol dihydrosinapate of the invention of formula (IIa) or the ferulic acid derivative of the prior art, by quantitative analysis of the total melanin synthesized by melanocytes of murine line B16 following application of the compound under test.
# Melanocytes (B16 cells) are cultured for 24 hours in a 96-well plate in an appropriate medium. […] After 72 hours of incubation, the culture medium is withdrawn, and total melanin is quantified by measuring the absorbance at 405 nm against a standard range of synthetic melanin from 0.78 to 100 μg/mL.
# The results are expressed as percentage inhibition of melanin production relative to the negative control, and are presented in Table 1.
# The inhibitory activity on melanin production of the product tested is calculated as a percentage according to the following formula:
# % inhibition=[(mean stimulated control−mean basal control)−(sample value−mean basal control)]/(mean stimulated control−mean basal control)×100
# where: • Mean stimulated control: mean of the values obtained with a medium supplemented with an alpha-MSH derivative • Sample value: value obtained with the compound under test • Mean basal control: Mean of the values obtained with a medium not supplemented with an alpha-MSH derivative
# melanocytes = experiment: Cytotoxicity, MTT cell viability on melanocytes; conditions: for Percentage cell viability, Mean: MTT
# Procedure: as §1, §2, §3
# [3] = 10^−6, 10^−5 and 10^−4 M, tolerated threshold 75% viability
structure (smiles),measurement,setting,value
"COc1cc(CCC(=O)OCCc2ccc(O)c(O)c2)cc(OC)c1O [Hydroxytyrosol dihydrosinapate (IIa), hydroxytyrosol dihydrosinapate]","Percentage cell viability, Mean",keratinocytes; 1 μM,105.8%
same,"Percentage cell viability, Mean",keratinocytes; 10 μM,115.2%
same,"Percentage cell viability, Mean",keratinocytes; 100 μM,75.7%
same,cytotoxicity (in words),keratinocytes; [3],not cytotoxic
same,inhibition of the activity of human tyrosinase (in words),human tyrosinase; human tyrosinase in the melanocytes,does not inhibit the activity of the human tyrosinase
same,inhibition at 1 µM,"human tyrosinase; normal human melanocytes, 1 μM, 24 hours, read-out: % inhibition of activity of tyrosinase +/− standard deviation",-5.85%
same,inhibition at 10 µM,"human tyrosinase; normal human melanocytes, 10 μM, 24 hours, read-out: % inhibition of activity of tyrosinase +/− standard deviation",-4.53%
same,inhibition at 100 µM,"human tyrosinase; normal human melanocytes, 100 μM, 24 hours, read-out: % inhibition of activity of tyrosinase +/− standard deviation",-36.6%
same,% release of PGE2 after irradiation,[1],22%
same,inhibition at 10 µM,[2]; 10 μM,75%
same,inhibition at 30 µM,[2]; 30 μM,106%
same,inhibition at 50 µM,[2]; 50 μM,115%
same,"Percentage cell viability, Mean",melanocytes; 1 μM,109.67%
same,"Percentage cell viability, Mean",melanocytes; 10 μM,107.53%
same,"Percentage cell viability, Mean",melanocytes; 100 μM,111.30%
same,cytotoxicity (in words),melanocytes; [3],not cytotoxic
